Measured values published in patent US4870175A, “6-substituted alkoxy-2-oxo-1,2-dihydroquinoxaline derivatives” (Toyo Jozo Kabushiki Kaisha, priority 1987, dated 1989).
Read-outs that look alike come from different tables or passages of the source.

Assays:
[1] = test system: cyclic AMP/phosphodiesterase; test: Inhibitory action of cyclic AMP/phosphodiesterase (crude enzyme fraction from sonicated rabbit platelets); type: biochemical; conditions: 40 min
Description: The pharmacological activity of the present compounds [1] is illustrated below. (1) Inhibitory action of cyclic AMP/phosphodiesterase:
A mixture of 2 mM MgCl2 /40 mM Tris-buffer (pH 7.5) 700 μl, enzyme solution (a crude enzyme fraction obtained from sonicated rabbit platelets) 100 μl, and a test sample solution (compound [1] dissolved in 50% aqueous methanol) 100 μl is incubated at 30° C. for 5 mins. 3', 5'-cyclic AMP 100 μl (50 μg) is added thereto and the mixture is further incubated for 40 mins. The reaction is stopped by heating 100° C. for 5 mins. The amount of 5'-AMP in the supernatant obtained by centrifugation at 3000 rpm for 5 mins. is measured using HPLC.
As shown in that table, the compound of the present invention has cyclic AMP/phosphodiesterase inhibitory activity at 1-10 μg/ml.

[2] = test system: rabbit platelet-rich plasma; test: Platelet aggregation inhibition (rabbit platelet-rich plasma, aggregometer); type: cell-based; conditions: Oryctolagus cuniculus, compound final concentration 10 μM, read-out: Inhibitory ratio
Description: (2) Platelet aggregation inhibition:
A rabbit platelet-rich plasma (5×10^5 /mm^3), to which was added 1/10 volume of a 3.8% sodium citrate solution, 216 μl, is incubated in an aggregometer at 37° C., 1000 rpm, for 3 mins. A test sample solution 12 μl (final concentration 10 μM) is added thereto and the mixture is further incubated for 3 mins., and collagen (aggregation agent) 2.5 μg/ml, ADP 2.5 μM, platelet activating factor (PAF) 0.05 μg/ml or 0.25 mM arachidonic acid (A.A.) 12 μl is added thereto as an aggregating agent, and the platelet aggregation activity is measured.

[3] = aggregating agent PAF 0.05 μg/ml
[4] = aggregating agent arachidonic acid (A.A.) 0.25 mM
[5] = aggregating agent collagen 2.5 μg/ml

SMILES	Inhibitory ratio ([1]; 1 μg/ml) [%]	Inhibitory ratio ([1]; 10 μg/ml) [%]	Inhibitory ratio ([1]; 100 μg/ml) [%]	inhibition at 10 µM [2, 3] [%]	inhibition at 10 µM [2, 4] [%]	inhibition at 10 µM [2, 5] [%]	inhibition at 10 µM ([2]; aggregating agent ADP 2.5 μM) [%]
O=C1CNc2cc(OCCCCc3nnnn3C3CCCCC3)ccc2N1 [Compound 931, 6-[4-(1-cyclohexyltetrazole-5-yl)-butoxy]-2-oxo-1,2,3,4-tetrahydroquinoxaline]	25.3	74.3	86.4	44.3	34	65.2	–
CCOC(=O)CCCOc1ccc2[nH]c(=O)c(C)nc2c1 [Compound 945]	44.3	83.5	88.9	–	–	54.2	–
CCOC(=O)CCCOc1ccc2[nH]c(=O)c(CC)nc2c1 [Compound 946]	78.7	92.5	–	90.7	85.1	79.2	91.5
CCCc1nc2cc(OCCCC(=O)OCC)ccc2[nH]c1=O [Compound 947]	66.9	90.1	–	27.5	19.6	39.5	59.5
Cc1nc2cc(OCCCC(=O)N(CCO)C3CCCCC3)ccc2[nH]c1=O [Compound 966]	54.5	86.6	93.7	–	–	83.5	–
CCc1nc2cc(OCCCC(=O)N(CCO)C3CCCCC3)ccc2[nH]c1=O [Compound 972]	84.4	93.4	–	56.3	48.7	70.5	63.6
